biological target: T1, human KCNK13 (Homo sapiens, UniProt Q9HB14); assay: KCNK13 antagonist activity, thallium flux FLIPR assay in HEK 293 cells stably expressing human KCNK13; type: cell-based; details: HEK 293 cells stably expressing human KCNK13, Tl+ sensitive dye, compound 15 min before thallium sulfate, ten point curves; read-out: hKCNK13 IC50
T1 construct: expressed in transfected cells
T1 sequence (Q9HB14 1-408): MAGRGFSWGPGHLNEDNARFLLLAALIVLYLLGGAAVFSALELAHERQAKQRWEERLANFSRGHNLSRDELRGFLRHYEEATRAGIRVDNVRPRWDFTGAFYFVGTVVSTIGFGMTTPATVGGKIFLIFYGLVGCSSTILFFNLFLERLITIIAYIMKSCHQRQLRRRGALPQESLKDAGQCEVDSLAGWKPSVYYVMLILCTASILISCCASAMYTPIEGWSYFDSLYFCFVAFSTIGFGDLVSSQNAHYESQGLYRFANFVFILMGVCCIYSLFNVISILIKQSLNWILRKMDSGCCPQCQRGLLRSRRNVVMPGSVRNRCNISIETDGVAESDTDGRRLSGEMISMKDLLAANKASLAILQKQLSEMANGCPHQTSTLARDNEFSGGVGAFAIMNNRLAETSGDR
Method: 4. Biological Efficacy of Compounds of the Invention
KCNK13 antagonist activity was determined by measuring changes in intracellular Thallium (Tl^+) concentrations using a Tl^+ sensitive fluorescent dye. The changes in fluorescent signal were monitored by Fluorescent Imaging Plate Reader (FLIPR™) technology available from Molecular Devices, LLC, US. KCNK13 mediated increases in intracellular Tl^+ concentration were readily detected by addition of a thallium sulfate Stimulus. 24 hours prior to the assay, human embryonic kidney 293 cells (HEK 293 cells) stably expressing human KCNK13 were seeded in cell culture medium in PDL coated black, clear-bottom 384-well plates (commercially available from Corning Inc., 356663) and grown overnight at 37° C., […]. On the day of the assay, cell culture media was removed and cells were loaded with potassium dye (commercially sold by Molecular Devices, LLC, US, R8222) for 1 hour at room temperature in the dark. Test compounds (at 10 point half log concentration response curves from 100 µM) were added to cells for 15 minutes prior to the addition of thallium sulfate to all wells. The IC50 values were determined from ten point concentration response curves. Curves were generated using the average of two wells for each data point.

Structure (SMILES) | IC50
COc1ncc(Cl)cc1C(=O)N(C)C1CCc2ccc(F)cc21 (single isomer, unassigned) [Example 20, 5-chloro-N-(6-fluoro-2,3-dihydro-1H-inden-1-yl)-2-methoxy-N-methylnicotinamide] | ≤ 500 nM
COc1ncc(C)cc1C(=O)N(C)Cc1ccc(F)cc1F [Example 72, N-(2,4-difluorobenzyl)-2-methoxy-N,5-dimethylnicotinamide] | ≤ 200 nM
COc1ncc(F)cc1C(=O)N(C)Cc1ccccc1C#N [Example 36, N-(2-cyanobenzyl)-5-fluoro-2-methoxy-N-methylnicotinamide] | ≤ 500 nM
COc1ncc(F)cc1C(=O)N(C)C1CCc2ccccc21 (single isomer, unassigned) [Example 17, N-(2,3-dihydro-1H-inden-1-yl)-5-fluoro-2-methoxy-N-methylnicotinamide] | ≤ 500 nM
COc1ncc(F)cc1C(=O)N(C)C(C)c1ccc(F)cc1F (single isomer, unassigned) [Example 69, N-(1-(2,4-difluorophenyl)ethyl)-5-fluoro-2-methoxy-N-methylnicotinamide] | ≤ 200 nM
COc1ncc(C)cc1S(=O)(=O)N1CCOc2ccc(F)cc2C1 [Example 53, 7-fluoro-4-((2-methoxy-5-methylpyridin-3-yl)sulfonyl)-2,3,4,5-tetrahydrobenzo[f][1,4]oxazepine] | ≤ 500 nM
COc1ncc(Cl)cc1S(=O)(=O)N1CCc2ccccc2C1 [Example 52, 2-((5-chloro-2-methoxypyridin-3-yl)sulfonyl)-1,2,3,4-tetrahydroisoquinoline] | ≤ 200 nM
O=S(=O)(c1cc(F)cnc1OC(F)F)N1CCOc2ccc(F)cc2C1 [Example 114, 4-((2-(difluoromethoxy)-5-fluoropyridin-3-yl)sulfonyl)-7-fluoro-2,3,4,5-tetrahydrobenzo[f][1,4]oxazepine] | ≤ 200 nM
CN(Cc1ccc(F)cc1F)C(=O)c1cc(Cl)cnc1OC(F)F [Example 100, 5-chloro-N-(2,4-difluorobenzyl)-2-(difluoromethoxy)-N-methylnicotinamide] | ≤ 100 nM
COc1ncccc1S(=O)(=O)N1CCOc2ccc(F)cc2C1 [Example 55, 7-fluoro-4-((2-methoxypyridin-3-yl)sulfonyl)-2,3,4,5-tetrahydrobenzo[f][1,4]oxazepine] | ≤ 500 nM
COc1ncc(F)cc1C(=O)N(C)C1CCOc2c(F)cccc21 (single isomer, unassigned) [Example 30, 5-fluoro-N-(8-fluorochroman-4-yl)-2-methoxy-N-methylnicotinamide] | ≤ 500 nM
CN(Cc1cccc(F)c1)S(=O)(=O)c1cc(F)cnc1OC(F)F [Example 112, 2-(difluoromethoxy)-5-fluoro-N-(3-fluorobenzyl)-N-methylpyridine-3-sulfonamide] | ≤ 100 nM
CN(C(=O)c1cc(F)cnc1OC(F)F)C1COc2ccccc21 (stereo not shown) [Example 85, 2-(difluoromethoxy)-N-(2,3-dihydrobenzofuran-3-yl)-5-fluoro-N-methylnicotinamide] | ≤ 200 nM
COc1ncc(F)cc1C(=O)N(C)C1CCOc2ccccc21 (single isomer, unassigned) [Example 14, N-(chroman-4-yl)-5-fluoro-2-methoxy-N-methylnicotinamide] | ≤ 500 nM
COc1ncc(Cl)cc1C(=O)N(C)C1COc2ccccc21 (single isomer, unassigned) [Example 27, 5-chloro-N-(2,3-dihydrobenzofuran-3-yl)-2-methoxy-N-methylnicotinamide] | ≤ 500 nM
CN(Cc1cccc(F)c1)C(=O)c1cc(C2CCC2)cnc1OC(F)F [Example 97, 5-cyclobutyl-2-(difluoromethoxy)-N-(3-fluorobenzyl)-N-methylnicotinamide] | ≤ 1000 nM
CN(C(=O)c1cc(Cl)cnc1OC(F)F)C1COc2cc(F)ccc21 (stereo not shown) [Example 77, 5-chloro-2-(difluoromethoxy)-N-(6-fluoro-2,3-dihydrobenzofuran-3-yl)-N-methylnicotinamide] | ≤ 500 nM
CN(Cc1cc(F)cc(F)c1)C(=O)c1cc(Cl)cnc1OC(F)F [Example 78, 5-chloro-N-(3,5-difluorobenzyl)-2-(difluoromethoxy)-N-methylnicotinamide] | ≤ 50 nM
CN(Cc1cccc(Cl)c1)C(=O)c1cc(Cl)cnc1OC(F)F [Example 84, 5-chloro-N-(3-chlorobenzyl)-2-(difluoromethoxy)-N-methylnicotinamide] | ≤ 100 nM

Structure (SMILES) | IC50
CN(C(=O)c1cc(Cl)cnc1OC(F)F)C1COc2ccccc21 (stereo not shown) [Example 91, 5-chloro-2-(difluoromethoxy)-N-(2,3-dihydrobenzofuran-3-yl)-N-methylnicotinamide] | ≤ 500 nM
COc1ncc(F)cc1C(=O)N(C)C1CCc2ccc(F)cc21 (single isomer, unassigned) [Example 9, 5-fluoro-N-(6-fluoro-2,3-dihydro-1H-inden-1-yl)-2-methoxy-N-methylnicotinamide] | ≤ 1000 nM
O=S(=O)(c1cc(F)cnc1OC(F)F)N1CCc2ccccc2C1 [Example 110, 2-((2-(difluoromethoxy)-5-fluoropyridin-3-yl)sulfonyl)-1,2,3,4-tetrahydroisoquinoline] | ≤ 100 nM
COc1ncc(Cl)cc1C(=O)N(C)C1CCc2ccccc21 (single isomer, unassigned) [Example 22, 5-chloro-N-(2,3-dihydro-1H-inden-1-yl)-2-methoxy-N-methylnicotinamide] | ≤ 500 nM
COc1ncc(F)cc1C(=O)N(C)C1CCOc2c(F)cccc21 (single isomer, unassigned) [Example 31, 5-fluoro-N-(8-fluorochroman-4-yl)-2-methoxy-N-methylnicotinamide] | ≤ 1000 nM
COc1ncc(F)cc1C(=O)N(C)Cc1ccccc1F [Example 37, 5-fluoro-N-(2-fluorobenzyl)-2-methoxy-N-methylnicotinamide] | ≤ 200 nM
COc1ncc(Cl)cc1C(=O)N(C)Cc1ccc(F)cc1C(F)(F)F [Example 57, 5-chloro-N-(4-fluoro-2-(trifluoromethyl)benzyl)-2-methoxy-N-methylnicotinamide] | ≤ 1000 nM
COc1ncc(Cl)cc1C(=O)N(C)C1CCc2ccc(F)cc21 (single isomer, unassigned) [Example 21, 5-chloro-N-(6-fluoro-2,3-dihydro-1H-inden-1-yl)-2-methoxy-N-methylnicotinamide] | ≤ 200 nM
COc1ncc(F)cc1C(=O)N1CCCCC1c1cccc(F)c1 (stereo not shown) [Example 4, (5-fluoro-2-methoxypyridin-3-yl)(2-(3-fluorophenyl)piperidin-1-yl)methanone] | ≤ 1000 nM
COc1ncc(Cl)cc1C(=O)N(C)C1COc2ccccc21 (single isomer, unassigned) [Example 25, 5-chloro-N-(2,3-dihydrobenzofuran-3-yl)-2-methoxy-N-methylnicotinamide] | ≤ 500 nM
COc1ncc(F)cc1C(=O)N(C)Cc1cccc(F)c1F [Example 38, N-(2,3-difluorobenzyl)-5-fluoro-2-methoxy-N-methylnicotinamide] | ≤ 500 nM
CCN(Cc1cccc(F)c1)C(=O)c1cc(Cl)cnc1OC [Example 49, 5-chloro-N-ethyl-N-(3-fluorobenzyl)-2-methoxynicotinamide] | ≤ 1000 nM
COc1ncc(F)cc1C(=O)N(C)C(C)c1cc(F)ccc1C#N (single isomer, unassigned) [Example 63, N-(1-(2-cyano-5-fluorophenyl)ethyl)-5-fluoro-2-methoxy-N-methylnicotinamide] | ≤ 1000 nM
COc1ncc(Cl)cc1C(=O)N(C)C(C)c1cc(F)ccc1C#N (single isomer, unassigned) [Example 59, 5-chloro-N-(1-(2-cyano-5-fluorophenyl)ethyl)-2-methoxy-N-methylnicotinamide] | ≤ 500 nM
O=S(=O)(c1cc(F)cnc1OC(F)F)N1CCc2ccc(F)cc2C1 [Example 111, 2-((2-(difluoromethoxy)-5-fluoropyridin-3-yl)sulfonyl)-7-fluoro-1,2,3,4-tetrahydroisoquinoline] | ≤ 200 nM
CN(C(=O)c1cc(F)cnc1OC(F)F)C1COc2cc(F)ccc21 (stereo not shown) [Example 74, 2-(difluoromethoxy)-5-fluoro-N-(6-fluoro-2,3-dihydrobenzofuran-3-yl)-N-methylnicotinamide] | ≤ 500 nM
CC(c1cccc(F)c1)N(C)C(=O)c1cc(F)cnc1OC(F)F (single isomer, unassigned) [Example 89, 2-(difluoromethoxy)-5-fluoro-N-(1-(3-fluorophenyl)ethyl)-N-methylnicotinamide] | ≤ 200 nM
COc1ncc(F)cc1C(=O)N(C)C1CCc2ccc(F)cc21 (single isomer, unassigned) [Example 10, 5-fluoro-N-(6-fluoro-2,3-dihydro-1H-inden-1-yl)-2-methoxy-N-methylnicotinamide] | ≤ 500 nM

Reference: patent publication US20260167632A1, “NICOTINAMIDE DERIVATIVES FOR USE IN TREATING DISORDERS ASSOCIATED WITH KCNK13 ACTIVITY” (Cerevance, Inc., priority 2022, published 2026)
